These results are taken from article PMC10011747, “Targeting androgen receptor and the variants by an orally bioavailable Proteolysis Targeting Chimeras compound in castration resistant prostate cancer” (eBioMedicine, 2023).

One assay deals with T1, AR NTD (221–320) (Homo sapiens, UniProt P10275).
T1 construct: GST tagged AR-NTD protein (221–320) (Abcam ab157902); purchased Abcam ab157902; host or cells: wheat germ (datasheet)
T1 sequence (P10275 221-320): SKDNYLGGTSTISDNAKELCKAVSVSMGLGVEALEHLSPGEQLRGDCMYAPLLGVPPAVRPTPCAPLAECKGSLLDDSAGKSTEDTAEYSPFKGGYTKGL
Kind of assay: Affinity selection mass spectrometer (ASMS) binding assay. As to conditions: 100 nM compound with 100 nM GST-AR-NTD, 1 h 37 °C; percentage of input compound recovered. The procedure: Affinity selection mass spectrometer (ASMS)[40] binding assay was employed for the screen and relative binding affinity assessment of AR NTD binding compounds. Briefly, GST tagged AR-NTD protein (221–320) (Abcam ab157902) at final concentration of 100 nM was incubated with 100 nM of individual candidate compounds in PBS for 1 h at 37 °C. The protein-compound mixture was filtered through 10K MWCO pore sized Nanosep centrifugal column (PALL Life science) with thorough wash steps to separate protein-bound and unbound compounds. The protein-bound compounds were subsequently extracted and analyzed by ABSCIEX 4000 QTRAP LC-ESI MS/MS (AB Sciex, Framingham, MA) coupled to an Agilent 1200 HPLC system. A Waters S XBridge RP18, 3.5 μm, 4.6 × 20 mm column was used as the stationary phase (Waters Corporation, Milford, MA, USA). Gradient elution was carried out using water with 0.1% formic acid (solvent A) and acetonitrile with 0.1% formic acid (solvent B) as a mobile phase. Positive ion polarity scanning was used in electrospray (ESI) mass-triggered fraction collection to monitor the target mass. Quantification of protein-bound compounds was determined against calibration curves established with drug standards. For relative binding affinity assessment, same procedure and condition was carried out for each compound without target protein incubated in the reaction as background controls. Relative binding affinity was calculated as percentage of input compound quantity after background value subtraction.

In another assay the test system is LNCaP cells. Nature of the assay: alamarBlue cell viability, LNCaP. It is filed as cell-based. As to conditions: Homo sapiens, 168 h, 7 days treatment, normal hormone condition. The method, then: (§1) Cells were seeded in triplicate in 96-well plates 1 day prior to drug treatment for all assays. For viability test and IC50 assessment, the alamarBlue™ Cell Viability Reagent (Thermo Fisher Scientific) was added to cells 7 days after PROTAC treatment, followed by fluorescence detection as the manufacturer instructed. The IC50 was calculated by dose-inhibition regression. For proliferation monitoring, 2, 4, 6 and 8 days after PROTAC treatment (day 0), viable cells were detected by MTT Cell Proliferation Kit I (Sigma–Aldrich) according to the manufacturer's instructions. Cellular caspase activity was measured by Caspase-Glo 3/7 Assay System (Promega) 1 or 2 days after the drug treatment.
(Resazurin is reduced to fluorescent resorufin, in cell work by metabolically active cells.)

The test system of another assay is VCaP cells. Nature of the assay: alamarBlue cell viability, VCaP. Format: cell-based. As to conditions: Homo sapiens, 168 h, 7 days treatment, normal hormone condition. The method, then:
as §1

By IC50 is commonly meant the concentration that inhibits the measured activity by half. High values mean a need for much substance, low ones inhibition by little substance. `Cc1ncsc1-c1ccc(CNC(=O)[C@@H]2C[C@H](O)CN2C(=O)[C@@H](NC(=O)COCCCCOc2ccc(C3CCN(C4=Nn5c(nnc5C(F)(F)F)CC4)CC3)cc2)C(C)(C)C)cc1` [ITRI-90, (2S,4S)-1-((S)-3,3-dimethyl-2-(2-(4-(4-(1-(3-(trifluoromethyl)-7,8-dihydro-[1,2,4]triazolo[4,3-b]pyridazin-6-yl)piperidin-4-yl)phenoxy)butoxy)acetamido)butanoyl)-4-hydroxy-N-(4-(4-methylthiazol-5-yl)benzyl)pyrrolidine-2-carboxamide]: on AR NTD (221–320), the “ASMS relative binding (%)” value came to 15.9%. Besides, the concentration for half-maximal inhibition (IC50) in the assay on LNCaP cells is 6.59 ± 3.13 µM; with VCaP cells, 5.45 ± 1.74 µM.

Consider `Cc1ncsc1-c1ccc(CNC(=O)[C@@H]2C[C@H](O)CN2C(=O)[C@@H](NC(=O)COCCCCCCOc2ccc(C3CCN(C4=Nn5c(nnc5C(F)(F)F)CC4)CC3)cc2)C(C)(C)C)cc1` [ITRI-125, (2S,4S)-1-((S)-3,3-dimethyl-2-(2-(6-(4-(1-(3-(trifluoromethyl)-7,8-dihydro-[1,2,4]triazolo[4,3-b]pyridazin-6-yl)piperidin-4-yl)phenoxy)hexyloxy)acetamido)butanoyl)-4-hydroxy-N-(4-(4-methylthiazol-5-yl)benzyl)pyrrolidine-2-carboxamide], for which the “ASMS relative binding (%)” value on AR NTD (221–320) came to 13.6%. Besides, the IC50 was 6.36 ± 2.1 µM in the assay with LNCaP cells and 3.06 ± 0.936 µM in the assay on VCaP cells.

Turning to `O=C1CCC(N2Cc3c(NC(=O)COCCCCOc4ccc(C5CCN(C6=Nn7c(nnc7C(F)(F)F)CC6)CC5)cc4)cccc3C2=O)C(=O)N1` (stereo not drawn) [ITRI-126, N-(2-(2,6-dioxopiperidin-3-yl)-1-oxoisoindolin-4-yl)-2-(4-(4-(1-(3-(trifluoromethyl)-7,8-dihydro-[1,2,4]triazolo[4,3-b]pyridazin-6-yl)piperidin-4-yl)phenoxy)butoxy)acetamide], the “ASMS relative binding (%)” value on AR NTD (221–320) is 20%. The concentration for half-maximal inhibition (IC50) was found to be 0.464 ± 0.093 µM in the assay on LNCaP cells and 0.448 ± 0.154 µM in the assay with VCaP cells.
